Common to all, as to test: cells
Set-up in all cases: species or system NCI-60 human tumour cell lines; NCI-60 one-dose screen at 10 uM, percent growth inhibition versus untreated control cells

One experiment relates to CAKI-1. The conditions noted are these: Homo sapiens, CAKI-1, growth inhibition, one dose.
Another experiment relates to PC-3. The conditions noted are these: Homo sapiens, PC-3, growth inhibition, one dose.
For the next experiment, the system named is NCI-H522. The conditions noted are these: Homo sapiens, NCI-H522, growth inhibition, one dose.
The next experiment has as its system K-562. The conditions noted are these: Homo sapiens, K562, growth inhibition, one dose.
The test system of the next experiment is LOX IMVI. The conditions noted are these: Homo sapiens, LOX IMVI, growth inhibition, one dose.
The subject of another experiment is MOLT-4. Particulars: Homo sapiens, MOLT-4, growth inhibition, one dose.
The test system of the next experiment is HL-60(TB). Particulars: Homo sapiens, HL-60, growth inhibition, one dose.
In the next experiment the test system is SF-539. The conditions noted are these: Homo sapiens, SF-539, growth inhibition, one dose.
A further experiment has as its system T-47D. Particulars: Homo sapiens, T47D, growth inhibition, one dose.
The test system of the next experiment is SF-268. Particulars: Homo sapiens, SF-268, growth inhibition, one dose.
For another experiment, the system named is SNB-19. The conditions noted are these: Homo sapiens, SNB-19, growth inhibition, one dose.
Another experiment deals with MALME-3M. The conditions noted are these: Homo sapiens, Malme-3M, growth inhibition, one dose.
The test system of the next experiment is OVCAR-5. The conditions noted are these: Homo sapiens, OVCAR-5, growth inhibition, one dose.
Another experiment has as its system 786-0. Particulars: Homo sapiens, 786-0, growth inhibition, one dose.
For another experiment, the system named is EKVX. The conditions noted are these: Homo sapiens, EKVX, growth inhibition, one dose.
In a further experiment the test system is HCT-116. Particulars: Homo sapiens, HCT-116, growth inhibition, one dose.
The subject of the next experiment is A549/ATCC. The conditions noted are these: Homo sapiens, A549, growth inhibition, one dose.
For the next experiment, the system named is SK-MEL-28. The conditions noted are these: Homo sapiens, SK-MEL-28, growth inhibition, one dose.
Where [1] appears, read: read-out: Growth% inhibition / 5d.
Where [2] appears, read: read-out: Growth% inhibition / 5a.
The mark [3] stands for this setting: read-out: Growth% inhibition / 5b.
[4] abbreviates: read-out: Growth% inhibition / 5e.

Like-named read-outs stand apart in the source and are kept apart here.

In the case of `CN(C)c1ccc(C=NNC(=O)/C=C/C=C/c2ccc3c(c2)OCO3)cc1` (mixture of isomers) [5d, (2E,4E)-5-(Benzo[d][1,3]dioxol-5-yl)-N′-((E/Z)-4-(dimethylamino)-benzylidene)penta-2,4-dienehydrazide], the inhibition at 10 µM with CAKI-1 (setting [1]) was 24.6%; with PC-3 (setting [1]), 15%; in the experiment with NCI-H522 (setting [1]), 11.7%; with K-562 (setting [1]), 56.1%; in the experiment on LOX IMVI (setting [1]), 11.1%.

Regarding `O=C(/C=C/C=C/c1ccc2c(c1)OCO2)NN=Cc1ccc(O)cc1` [5a, (2E,4E)-5-(Benzo[d][1,3]dioxol-5-yl)-N′-((E,Z)-4-hydroxybenzylidene)penta-2,4-dienehydrazide], the inhibition at 10 µM turned out to be 25.1% with CAKI-1 (setting [2]); 23.5% with MOLT-4 (setting [2]); 44.1% in the experiment on HL-60(TB) (setting [2]); 19.8% in the experiment with PC-3 (setting [2]); 17.6% in the experiment with SF-539 (setting [2]); 18.6% in the experiment on T-47D (setting [2]). Moreover, the inhibition at 10 µM in the experiment with NCI-H522 (setting [2]) is 22.8%; with K-562 (setting [2]), 58.8%; with SF-268 (setting [2]), 17.1%; with LOX IMVI (setting [2]), 38.5%.

As to `O=C(/C=C/C=C/c1ccc2c(c1)OCO2)N/N=C/c1ccc(O)cc1O` [5b, (2E,4E)-5-(Benzo[d][1,3]dioxol-5-yl)-N′-((E)-2,4-dihydroxybenzylidene)penta-2,4-dienehydrazide], the inhibition at 10 µM in the experiment on CAKI-1 (setting [3]) turned out to be 90.3%; with MOLT-4 (setting [3]), 86.7%; in the experiment on SNB-19 (setting [3]), 50.9%; in the experiment with MALME-3M (setting [3]), 59.7%; in the experiment with OVCAR-5 (setting [3]), 57.5%; in the experiment with PC-3 (setting [3]), 62%. Besides, the inhibition at 10 µM with 786-0 (setting [3]) was determined as 71%; with EKVX (setting [3]), 79.8%; in the experiment with SF-539 (setting [3]), 85.7%; with HCT-116 (setting [3]), 91.3%; in the experiment on T-47D (setting [3]), 76.1%; with NCI-H522 (setting [3]) it was 78.9%. The inhibition at 10 µM worked out at 63.9% with A549/ATCC (setting [3]); 88.4% in the experiment on K-562 (setting [3]); 75.6% in the experiment on SF-268 (setting [3]); 90.3% in the experiment with LOX IMVI (setting [3]); 57.9% in the experiment with SK-MEL-28 (setting [3]).

For the compound `CCN(CC)c1ccc(/C=N/NC(=O)/C=C/C=C/c2ccc3c(c2)OCO3)c(O)c1` [5e, (2E,4E)-5-(Benzo[d][1,3]dioxol-5-yl)-N′-((E)-4-(diethylamino)-2-hydroxybenzylidene)penta-2,4-dienehydrazide], the inhibition at 10 µM in the experiment with CAKI-1 (setting [4]) was 70.7%; in the experiment on MOLT-4 (setting [4]), 81.7%; in the experiment on SNB-19 (setting [4]), 39%; in the experiment with HL-60(TB) (setting [4]) it was 97.3%; in the experiment with MALME-3M (setting [4]) it was 43.5%; in the experiment on OVCAR-5 (setting [4]), 39.1%. In addition, the inhibition at 10 µM with PC-3 (setting [4]) was determined as 59.1%; in the experiment on 786-0 (setting [4]), 52.8%; in the experiment with EKVX (setting [4]), 47.8%; with SF-539 (setting [4]), 77.3%; in the experiment with HCT-116 (setting [4]), 92.1%; in the experiment on T-47D (setting [4]), 73.7%. Besides, the inhibition at 10 µM in the experiment with NCI-H522 (setting [4]) turned out to be 87.5%; in the experiment on A549/ATCC (setting [4]), 46.7%; with K-562 (setting [4]) it was 82.4%; with SF-268 (setting [4]) it was 66.3%; with LOX IMVI (setting [4]) it was 81.8%; in the experiment with SK-MEL-28 (setting [4]) it was 48%.

Values taken from paper PMC9037111, “Structure-based design, synthesis, and biological evaluation of novel piperine–resveratrol hybrids as antiproliferative agents targeting SIRT-2” (RSC Advances, 2021).
